Reference: US20110105515A1, “TARGETING THE ONCOPROTEIN NUCLEOPHOSMIN” (President and Fellows of Harvard College, priority 2007, published 2011)

What was measured:
[1] = test system: SNB-19; settings: SNB-19 (CNS Cancer), 48 hours, SRB
[2] = test system: HT29; settings: HT29 (Colon Cancer), 48 hours, SRB
[3] = test system: HS578T; settings: HS578T (Breast Cancer), 48 hours, SRB
[4] = test system: U251; settings: U251 (CNS Cancer), 48 hours, SRB
[5] = test system: ACHN; settings: ACHN (Renal Cancer), 48 hours, SRB
[6] = test system: A498; settings: A498 (Renal Cancer), 48 hours, SRB
[7] = test system: HL-60(TB)
[8] = test system: PC-3; settings: PC-3 (Prostate Cancer), 48 hours, SRB
[9] = test system: MDA-MB-231/ATCC; settings: MDA-MB-231/ATCC (Breast Cancer), 48 hours, SRB
[10] = test system: CCRF-CEM; settings: CCRF-CEM (Leukemia), 48 hours, SRB
[11] = test system: RXF 393; settings: RXF 393 (Renal Cancer), 48 hours, SRB
[12] = test system: UO-31; settings: UO-31 (Renal Cancer), 48 hours, SRB
[13] = test system: UACC-257; settings: UACC-257 (Melanoma), 48 hours, SRB
[14] = test system: SN12C; settings: SN12C (Renal Cancer), 48 hours, SRB
[15] = test system: MCF7; settings: MCF7 (Breast Cancer), 48 hours, SRB
[16] = test system: RPMI-8226; settings: RPMI-8226 (Leukemia), 48 hours, SRB
[17] = test system: NCI-H226; settings: NCI-H226 (Non-Small Cell Lung Cancer), 48 hours, SRB
[18] = test system: K-562; settings: K-562 (Leukemia), 48 hours, SRB
[19] = test system: SF-539; settings: SF-539 (CNS Cancer), 48 hours, SRB
[20] = test system: DU-145; settings: DU-145 (Prostate Cancer), 48 hours, SRB
[21] = test system: M14; settings: M14 (Melanoma), 48 hours, SRB
[22] = test system: SW-620; settings: SW-620 (Colon Cancer), 48 hours, SRB
[23] = test system: MALME-3M; settings: MALME-3M (Melanoma), 48 hours, SRB
[24] = test system: SK-MEL-2; settings: SK-MEL-2 (Melanoma), 48 hours, SRB
[25] = test system: OVCAR-3; settings: OVCAR-3 (Ovarian Cancer), 48 hours, SRB
[26] = test system: SR; settings: SR (Leukemia), 48 hours, SRB
[27] = test system: OVCAR-8; settings: OVCAR-8 (Ovarian Cancer), 48 hours, SRB
[28] = test system: SNB-75; settings: SNB-75 (CNS Cancer), 48 hours, SRB
[29] = test system: IGROV1; settings: IGROV1 (Ovarian Cancer), 48 hours, SRB
[30] = test system: 786-0; settings: 786-0 (Renal Cancer), 48 hours, SRB
[31] = test system: UACC62; settings: UACC62 (Melanoma), 48 hours, SRB
[32] = test system: BT-549; settings: BT-549 (Breast Cancer), 48 hours, SRB

Compound `CC1(C)C=Cc2c(ccc3c4c(n(O)c23)C(C)(C)C2CC35CCCN3C(=O)C2(NC5=O)C4SCC(NC(=O)CCC(N)C(=O)O)C(=O)NCC(=O)O)O1` (stereo not drawn) [Glutathione Adduct] has a GI50 [1] of 1.43 µM, a TGI [1] of 6.24 µM and a CC50 ([1]; read-out: LC50) of 18.7 µM. It also gave a GI50 [2] of 0.9 µM, a TGI [2] of 2.01 µM and a CC50 ([2]; read-out: LC50) of 4.51 µM. The GI50 [3] was 1.11 µM, the TGI [3] was 3.79 µM and the CC50 ([3]; read-out: LC50) was > 50 µM. For the same compound, the GI50 [4] was 0.819 µM, the TGI [4] was 1.97 µM and the CC50 ([4]; read-out: LC50) was 4.76 µM. It also gave a GI50 [5] of 0.961 µM, a TGI [5] of 3.22 µM and a CC50 ([5]; read-out: LC50) of 12.3 µM. For the same compound, the GI50 [6] was 0.804 µM, the TGI [6] was 1.83 µM and the CC50 ([6]; read-out: LC50) was 4.16 µM. The CC50 [7] was 13.3 µM, the GI50 [7] was 0.321 µM and the TGI [7] was 1.62 µM. It also gave a GI50 [8] of 0.906 µM, a TGI [8] of 2.59 µM and a CC50 ([8]; read-out: LC50) of 11.6 µM. It also gave a GI50 [9] of 0.931 µM, a TGI [9] of 3.68 µM and a CC50 ([9]; read-out: LC50) of 14.7 µM. It also gave a GI50 [10] of 0.672 µM, a TGI [10] of 2.03 µM and a CC50 ([10]; read-out: LC50) of 35 µM. The GI50 [11] was 0.829 µM, the TGI [11] was 1.75 µM and the CC50 ([11]; read-out: LC50) was 3.69 µM. For the same compound, the GI50 [12] was 0.779 µM, the TGI [12] was 4.07 µM and the CC50 ([12]; read-out: LC50) was 15 µM. The GI50 [13] was 1.07 µM, the TGI [13] was 5.43 µM and the CC50 ([13]; read-out: LC50) was 17.3 µM. It also gave a GI50 [14] of 1.51 µM, a TGI [14] of 5.64 µM and a CC50 ([14]; read-out: LC50) of 17.8 µM. It also gave a GI50 [15] of 0.84 µM, a TGI [15] of 3.18 µM and a CC50 ([15]; read-out: LC50) of 33.6 µM. The GI50 [16] was 0.159 µM, the TGI [16] was 1.14 µM and the CC50 ([16]; read-out: LC50) was > 50 µM. It also gave a GI50 [17] of 0.802 µM, a TGI [17] of 2.29 µM and a CC50 ([17]; read-out: LC50) of 8.33 µM. The GI50 [18] was 1.01 µM, the TGI [18] was 4.66 µM and the CC50 ([18]; read-out: LC50) was > 50 µM. For the same compound, the GI50 [19] was 0.838 µM, the TGI [19] was 2.03 µM and the CC50 ([19]; read-out: LC50) was 4.9 µM. It also gave a GI50 [20] of 1.16 µM, a TGI [20] of 2.65 µM and a CC50 ([20]; read-out: LC50) of 7.88 µM. The GI50 [21] was 0.996 µM, the TGI [21] was 2.63 µM and the CC50 ([21]; read-out: LC50) was 11.2 µM. The GI50 [22] was 0.713 µM, the TGI [22] was 1.5 µM and the CC50 ([22]; read-out: LC50) was 3.81 µM. The GI50 [23] was 0.419 µM, the TGI [23] was 3.1 µM and the CC50 ([23]; read-out: LC50) was 25.1 µM. It also gave a GI50 [24] of 0.877 µM, a TGI [24] of 2.44 µM and a CC50 ([24]; read-out: LC50) of 10.9 µM. The GI50 [25] was 0.735 µM, the TGI [25] was 1.52 µM and the CC50 ([25]; read-out: LC50) was 3.13 µM. The GI50 [26] was 0.228 µM, the TGI [26] was 1.28 µM and the CC50 ([26]; read-out: LC50) was 16.7 µM. The GI50 [27] was 1.6 µM, the TGI [27] was 6.38 µM and the CC50 ([27]; read-out: LC50) was 29.8 µM. For the same compound, the GI50 [28] was 0.896 µM, the TGI [28] was 2.45 µM and the CC50 ([28]; read-out: LC50) was 8.47 µM. It also gave a GI50 [29] of 1.06 µM, a TGI [29] of 2.81 µM and a CC50 ([29]; read-out: LC50) of 11.9 µM. The GI50 [30] was 1.12 µM, the TGI [30] was 2.44 µM and the CC50 ([30]; read-out: LC50) was 6.03 µM. The GI50 [31] was 0.649 µM, the TGI [31] was 1.72 µM and the CC50 ([31]; read-out: LC50) was 4.56 µM. It also gave a GI50 [32] of 0.923 µM, a TGI [32] of 2.7 µM and a CC50 ([32]; read-out: LC50) of 10.5 µM.
